Reference: the supplement of paper PMC10702517
± gives the standard deviation.

Legend:
[1] = chemical recovery from spiked human plasma; higher = better extraction; conditions: pooled human plasma
[2] = chemical recovery into PDMS from spiked human plasma; higher = better extraction; conditions: pooled human plasma, extraction method: PES with PDMS
[3] = chemical recovery by SPE of plasma after PDMS sampling; higher = better extraction; conditions: pooled human plasma, extraction method: HLB SPE of plasma after PES
[4] = extraction method: SPE only (HLB 96-well)
[5] = extraction method: SPE only (HLB 96-well), PES comparison experiment
[6] = extraction method: solvent precipitation (ACN + hexane)
[7] = extraction method: PES+SPE (3 d PDMS equilibration then HLB SPE)
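Throughout, for chemical recovery by SPE of plasma after PDMS sampling: over 400 spiked chemicals quantified by LC-HRMS or GC-HRMS via internal standard calibration, recovery relative to spike mix added to unspiked plasma extract to correct matrix effects.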

| Structure (SMILES) | chemical recovery [1, 4] | chemical recovery [1, 5] | chemical recovery [1, 6] | chemical recovery into PDMS ([2]; equilibration time (d): 1) | chemical recovery into PDMS ([2]; equilibration time (d): 3) | chemical recovery into PDMS ([2]; equilibration time (d): 6) | chemical recovery by SPE of plasma ([3]; equilibration time (d): 3) | chemical recovery by SPE of plasma ([3]; equilibration time (d): 1) | chemical recovery by SPE of plasma ([3]; equilibration time (d): 6) | chemical recovery [1, 7] |
| --- | --- | --- | --- | --- | --- | --- | --- | --- | --- | --- |
| Fc1ccc(Oc2ccnc3cc(Cl)cc(Cl)c23)cc1 [Quinoxyfen] | 57.2 ± 16% | 31.6 ± 5.7% | 96.2 ± 9.7% | 48 ± 4.7% | 50.5 ± 5.9% | 48.7 ± 2% | 0.232 ± 0.06% |  |  |  |
| Cc1nc2n(c(=O)c1CCN1CCC(c3noc4cc(F)ccc34)CC1)CCCC2 [Risperidone] |  |  | 73.2 ± 3.6% | 0.00139 ± 0.0024% | 0.000765 ± 0.0018% |  | 3.9 ± 0.9% | 4.71 ± 0.66% | 2.32 ± 0.59% |  |
| CN[C@H]1CC[C@@H](c2ccc(Cl)c(Cl)c2)c2ccccc21 [Sertraline] | 71.9 ± 9.3% | 40.5 ± 8.4% | 72.8 ± 3.8% | 0.493 ± 0.065% | 0.434 ± 0.081% | 0.535 ± 0.27% | 0.321 ± 0.11% | 0.296 ± 0.11% | 0.0944 ± 0.088% | 1.09 ± 0.4% |
| CCNc1nc(Cl)nc(NCC)n1 [Simazine] | 43.4 ± 2.3% | 48.6 ± 5.5% | 60.6 ± 5.9% | 30.5 ± 1.1% | 35.8 ± 1.3% | 38.6 ± 2.5% | 7.56 ± 1.3% | 9.65 ± 1.2% | 4.81 ± 0.55% | 47.8 ± 5.9% |
| CCNc1nc(NCC)nc(SC)n1 [Simetryn] | 41.6 ± 3.2% | 46.7 ± 4.3% | 70.9 ± 3.6% | 21.2 ± 8.1% | 25.4 ± 8.6% | 28.9 ± 5.6% | 5.73 ± 0.83% | 12.9 ± 2.2% | 3.34 ± 0.47% |  |
| CC[C@H]1CCC[C@H](O[C@H]2CC[C@H](N(C)C)[C@@H](C)O2)[C@@H](C)C(=O)C2=C[C@@H]3[C@@H](C=C[C@@H]4C[C@@H](O[C@@H]5O[C@@H](C)[C@H](OC)[C@@H](OC)[C@H]5OC)C[C@@H]34)[C@@H]2CC(=O)O1 [Spinosyn A] |  | 39.5 ± 10% | 71.7 ± 10% | 0.00824 ± 0.014% | 0.0193 ± 0.034% | 0.00695 ± 0.012% | 0.155 ± 0.14% | 0.0715 ± 0.12% | 0.0384 ± 0.0082% |  |
| CS(=O)(=O)c1ccc(C(=O)C2C(=O)CCCC2=O)c(Cl)c1 [Sulcotrione] | 47.6 ± 3.3% | 51.3 ± 2.9% | 72.8 ± 3.6% |  |  | 0.00153 ± 0.0027% | 59.9 ± 2.5% | 53.9 ± 7% | 54.5 ± 2% | 57 ± 5.9% |
| O=P(OC(CCl)CCl)(OC(CCl)CCl)OC(CCl)CCl [TDCPP] | 46.5 ± 0.97% | 50.5 ± 5.6% |  | 35.2 ± 3% | 37.4 ± 4.4% | 35.8 ± 3% | 4.02 ± 4.5% | 4.16 ± 3.7% | 2.14 ± 3.7% |  |
| CC(C)CC(C)(O)C#CC(C)(O)CC(C)C (configuration not stated) [TMDD] | 47.5 ± 6% |  | 77.6 ± 7% | 47.1 ± 4.9% |  | 60.2 ± 18% |  |  | 38.6 ± 6% |  |
| CCCc1nc2c(C)cc(-c3nc4ccccc4n3C)cc2n1Cc1ccc(-c2ccccc2C(=O)O)cc1 [Telmisartan] | 50.8 ± 2.5% | 45.4 ± 5.1% |  | 0.144 ± 0.041% | 0.817 ± 0.34% | 1.28 ± 0.6% | 46.2 ± 1% | 43.6 ± 3.4% | 43.5 ± 2.1% | 55.8 ± 1.8% |
| CN1C(=O)C(O)N=C(c2ccccc2)c2cc(Cl)ccc21 (configuration not stated) [Temazepam] | 46.8 ± 2.9% | 44.5 ± 6.3% | 77.8 ± 3.1% | 11.2 ± 0.91% | 16.5 ± 0.71% | 17.6 ± 1.9% | 27.9 ± 3.1% | 30.4 ± 4.8% | 22 ± 2.1% | 62.9 ± 6.2% |
| CC/C(=N\OC/C=C/Cl)C1=C(O)CC(C2CCOCC2)CC1=O (configuration not stated) [Tepraloxydim] | 40.5 ± 2.5% | 51.8 ± 3% | 73.8 ± 3.1% | 0.0964 ± 0.084% | 0.473 ± 0.3% | 0.369 ± 0.063% | 48.3 ± 2.9% | 47.5 ± 6.9% | 41.9 ± 3.2% | 45.7 ± 5% |
| CN(C/C=C/C#CC(C)(C)C)Cc1cccc2ccccc12 [Terbinafine] | 46.4 ± 1% | 50 ± 10% | 86.4 ± 13% | 0.00204 ± 0.0035% | 0.065 ± 0.1% | 0.00509 ± 0.0088% | 0.2 ± 0.089% | 0.265 ± 0.18% | 0.0441 ± 0.0079% |  |
| CCNc1nc(Cl)nc(NC(C)(C)C)n1 [Terbuthylazine] | 61.8 ± 2.3% | 45.8 ± 8% | 69.5 ± 7.1% | 37 ± 1% | 41.3 ± 3.5% | 41.4 ± 1.7% | 1.28 ± 0.32% | 1.41 ± 0.15% | 0.724 ± 0.021% | 64.8 ± 10% |
| CCNc1nc(NC(C)(C)C)nc(SC)n1 [Terbutryn] | 46.2 ± 2.5% | 48.2 ± 6.7% | 68.8 ± 3.2% | 21.7 ± 8.2% | 21.5 ± 6.8% | 22.9 ± 3.2% | 1.01 ± 0.25% | 1.3 ± 0.11% | 0.516 ± 0.03% |  |
| C[C@]12CC[C@H]3[C@@H](CCC4=CC(=O)CC[C@@]43C)[C@@H]1CC[C@@H]2O [Testosterone] |  | 52.8 ± 8.8% |  | 29.7 ± 1.9% | 35.7 ± 2.2% | 35.6 ± 0.61% | 14.5 ± 1.6% | 16 ± 3.3% | 8.83 ± 2.7% |  |
| NC(=O)/N=C1\SCCN1Cc1ccc(Cl)nc1 [Thiacloprid amide] | 33.6 ± 3.3% | 51.2 ± 7% | 78 ± 3.3% | 2.46 ± 0.75% | 4 ± 1.4% | 4.83 ± 0.88% | 53.4 ± 4.1% | 51.1 ± 5.3% | 47 ± 2.8% | 42.5 ± 3.4% |
| N#C/N=C1\SCCN1Cc1ccc(Cl)nc1 [Thiacloprid] | 43.4 ± 3.5% | 55.7 ± 4.2% | 79.2 ± 2.9% | 18.1 ± 1.4% | 26.3 ± 4.2% | 29.8 ± 2.2% | 33.4 ± 2.5% | 39.3 ± 6% | 25.1 ± 4.8% | 55.5 ± 5.8% |
| CC(=O)c1cc2c(cc1C)C(C)(C)C(C)CC2(C)C (configuration not stated) [Tonalide] | 17.1 ± 5% | 22.3 ± 6.1% |  | 49 ± 3.7% | 48.1 ± 5.2% | 55.1 ± 2.9% |  | 0.526 ± 0.91% |  | 41.1 ± 12% |
